Values of other authors as cited in publication PMC11172375, “Preclinical Evaluation of Biodistribution and Toxicity of [^211At]PSMA-5 in Mice and Primates for the Targeted Alpha Therapy against Prostate Cancer” (International Journal of Molecular Sciences, 2024).

Tests used:
[1] = cited from earlier work
[2] = design: method as in PMID 27230930; details: mice treated with 1.5MBq (75MBq/kg); cited from earlier work
prostate cancer = test system: prostate cancer; design: method as in PMID 27390158, PMID 38218192, PMID 33293081, PMID 33008928, PMID 37247612; details: patients resistant to beta therapy with [177Lu]PSMA-617; cited from earlier work
[3] = test system: metastatic castration-resistant prostate cancer; design: method as in PMID 34161051; details: patients with mCRPC previously treated with ARPI and taxane, VISION trial; cited from earlier work
[4] = test system: metastatic castration-resistant prostate cancer; design: method as in doi:10.1200/JCO.2022.40.6_suppl.TPS211; details: taxane-naïve patients with mCRPC, PSMAfore trial; cited from earlier work

## [211At-].[Na+] [[^211At]NaAt]
[1]; 3 h post-administration
  uptake in the thyroid: 509 %ID/g
[1]; even in low-dose groups (5 MBq/kg)
  thyroid histology: thyroid ablation effects

## O=C(O)CC[C@H](NC(=O)NC(CCCCNC(=O)c1ccc([211At])cc1)C(=O)O)C(=O)O (stereo partly drawn) [^211At-6, (2S)-2-(3-(1-Carboxy-5-(4-211At-Astatobenzamido)Pentyl)Ureido)-Pentanedioic Acid]
[2]
  kidney toxicity: late nephropathy with loss of the proximal tubules

## O=C([O-])CC[C@H](NC(=O)N[C@@H](CCCCNC(=O)[C@H](Cc1ccc2ccccc2c1)NC(=O)C1CCC(CNC(=O)CN2CCN(CC(=O)[O-])CCN(CC(=O)[O-])CCN(CC(=O)[O-])CC2)CC1)C(=O)[O-])C(=O)[O-].[225Ac].[H+].[H+].[H+] (stereo partly drawn) [[^225Ac]PSMA-617]
Prostate cancer
  efficacy of alpha therapy: proven effective

## O=C([O-])CN1CCN(CC(=O)[O-])CCN(CC(=O)NCC2CCC(C(=O)N[C@@H](Cc3ccc4ccccc4c3)C(=O)NCCCC[C@H](NC(=O)N[C@@H](CCC(=O)O)C(=O)O)C(=O)O)CC2)CCN(CC(=O)[O-])CC1.[177Lu+3] (stereo partly drawn) [[^177Lu]PSMA-617]
[3]
  overall survival compared to the standard of care: significantly extended overall survival
[4]
  radiographic progression-free survival compared to ARPI changes: prolong radiographic progression-free survival
